Consider one substance from patent US6087375A, “Methods of treating or preventing thromboses” (priority 1999, dated 2000).

For one experiment, the system named is thrombin. As to the kind of experiment: Sandwich ELISA for thrombin binding of conjugated proteins (anti-thrombin detection). The protocol:
(§1) The plates were incubated at room temperature for 30 minutes and washed as above.
as §1
Next, 100 μl/well of ABC-HRP (Vector, catalog no. PK4000) was added, each component diluted 1:500 in PBS, pH 7.4, with 0.1% TWEEN 20 and incubated 30 minutes at room temperature prior to use.

Experiment [1] relates to human platelets (thrombin-induced aggregation). As to the kind of experiment: Thrombin-induced platelet aggregation assay. It is filed as cell-based. Here is the method:
The conjugate was prepared according to the following protocol. A 15 μM solution of RSA in PBS was reacted with 200 μM argatroban-C6 NHS ester for 1 hour at room temperature. Sham samples consist of the RSA incubated for the same length of time at RT in 2% DMSO in PBS. Each of the samples was then concentrated to a final volume of 1.5 mL using Amicon Centricon 30 filtration/concentration devices. The concentrated samples were then desalted on Pierce's 5 ML Kwiksep excellulose plastic desalting columns. The excluded volumes containing RSA or argatroban-C6-RSA were then subjected to BCA microprotein estimation and lyophilization. In addition, these samples were analyzed by LC/MS, sandwich ELISA assays (described above) to measure thrombin binding and immunoblotting.
Platelets were purified from freshly drawn human blood diluted with the anticoagulant buffer ACD (9 mls of blood to 1 mL of buffer). The blood was centrifuged for 25 min at 200×g. The platelet-rich plasma (PRP) was recovered with a plastic pipette. The PRP was centrifuged for 15 min at 3,000×g in v-shaped plastic tubes. The supernatant, called platelet-poor plasma (PPP), was then removed and saved, and the platelets were resuspended in buffer A1 (35 mM citric acid, 103 mM NaCl, 5 mM each of glucose and KCl, 2 mM CaCl2, 1 mM […], 3.5 mg/mL BSA, 0.1 μM PGE1 and 0.3 U/mL of apyrase at pH 6.5). The resuspended platelets were washed 2 times with buffer A1. After the last wash, the platelets were resuspended in buffer B1 (137 mM NaCl, 2.6 mM KCL 12 mM NaHCO3, 0.3 mM NaH2 PO4, 3 mM CaCl2, 1 mM MgCl2, 5 mM glucose, 3.5 mg/mL BSA and […] apyrase at pH 7.4) at a density of 3×10^5 /μL. The platelets were maintained at room temperature until ready for use.
Various parameters relevant to platelet aggregation were obtained on a four channel aggregometer manufactured by AFFI BIO. In brief, the reaction chambers are warmed to 37° C. and are agitated at a rate of 1,200 rpm. Light is passed through the reaction chambers, with 300 μL of buffer B1 used to set the 100% transmittance level for each chamber. From a series of standardization experiments, it was determined that 0.5 U/mL of human thrombin (Sigma) is an optimal aggregating concentration of thrombin and is used to set. the 0% transmittance for the instrument. Standard conditions for the assay involve incubating 250 μL of the platelet suspension with or without 50 μL of inhibitor diluted in buffer in the reaction chambers for 60 seconds at 37° C. The value of transmittance is now set as 0%. After this measurement, thrombin is added to the reaction chambers (20 μl) and transmittance is measured for the next 6 minutes. Samples were performed in triplicate.

Experiment [2] has as its target thrombin from human plasma (Homo sapiens, UniProt P00734). The experiment is described as follows: Km-based fluorogenic assay for inhibition of thrombin (Example 7). It is filed as biochemical. Also noted: from tissue; host or cells: human plasma. The settings on record: FIG. 9, ambient temperature, pH 7.2. The protocol: Thrombin from human plasma was obtained from Enzyme System Products, Dublin, Calif., in glycerol:water 1:1, 11.4 mg/ml, 3800 U/mg, MW 36,700, and stored undiluted at -20° C. It was freshly diluted the day of use.
To dilute for the assay, 0.67 μl (25 Units) of thrombin was pipetted into 5 ml of 0.1 mg/ml BSA (from Pierce, Catalog No. 23209, BSA fraction V, a 2 mg/ml stock in saline with sodium azide), in cold PBS (GIBCO, Catalog No. 14190-136, without calcium chloride and magnesium chloride, pH 7.2) and briefly vortexed, yielding a stock of 5 mU thrombin/μl.
The substrate was N-tBOC-β-Benzyl-Asp-Pro-Arg-7-Amido4-Methylcoumarin HCl and was obtained from Sigma, Catalog No. B4028, Lot 122H0070, F.W. 770.3. Five mg was dissolved in […] DMSO for a 4 mM stock. The stock was stored in 200 μl aliquots at -20° C. in the dark.
An alternative substrate was N-tBOC-Val-Pro-Arg-7-Amido4-Methylcoumarin HCl and was obtained from Sigma, Catalog No. B-9385, Lot 53H0805, F.W. of free base 627.7. Five mg was dissolved in 1.863 ml DMSO for a 4 mM stock. The stock was stored in 200 μl aliquots at -20° C. in the dark.
The fluorescent standard was 7-Amido4-Methylcoumarin and was obtained from Aldrich, Catalog No. 25,737-0, MW 175.19. […]
Initial readings were taken to ensure exclusion of rogue wells with abnormally high backgrounds (λ excitation at 360 nm, bandwidth […], λ emission, 460 nm, bandwidth 40 nm). Then, 25 μl of a 10×stock of the putative inhibitor were added per well, mixed for 5 seconds and read kinetically for 10 minutes at ambient temperature to assess background interference and/or any increase in hydrolysis of substrate due to inhibitor.
The thrombin assay was then initiated by adding 25 μl of thrombin/well with a multichannel pipettor and mixed for 5 seconds. The appearence of the fluorescent product (free 7-amido-4-methylcoumarin released from the peptide by thrombin) was followed simultaneously in 48 wells (one reading per minute for 30 minutes, λ excitation at 360 nm, bandwidth 40 nm, λ emission, 460 nm, bandwidth 40 nm). […]

Consider “RSA-argatroban-C6 conjugate: rabbit serum albumin covalently bound by argatroban-C6 NHS ester molecules”, for which, in the experiment on thrombin (RSA conjugate versus HSA conjugate), the “absolute ELISA signal” value is “the absolute signal is lower than that obtained with HSA”. Moreover, the “concentration at which a significant signal above background was detected” value with thrombin (RSA conjugate, FIG. 3) is on record as “approximately 30 ng/ml”. The “IC50 (estimated concentration which inhibits 50% of the aggregation)” value in experiment [1] (0.5 U/mL human thrombin, 37° C., conjugate: average of 10 argatrobans/RSA used) is 4.5 to 7.5 µM. In addition, in experiment [1] (FIG. 11, versus sham-treated RSA), the “delay in thrombin-induced platelet aggregation” value is given as “clearly delayed platelet aggregation”. The “IC50 (estimated)” value in experiment [2] is approximately 0.025 µM.
